Results taken from patent US20090022739A1, “MODULATING THE KV1.1 VOLTAGE-GATED POTASSIUM CHANNEL IN T-CELLS FOR REGULATING THE […] AND SECRETION OF TUMOR NECROSIS FACTOR ALPHA (tnf-ALPHA) AND TREATING HUMAN DISEASE OR INJURIES MEDIATED BY […] HIGH OR LOW LEVELS OF TNF-ALPHA” (priority 2005, published 2009).
Read-outs that look alike come from different tables or passages of the source.

Tests used:
TNF-α mRNA = assay: RT-PCR for TNF-α mRNA in normal human T-cells; assay type: cell-based; conditions: 100 nM DTX-K for 24 hr; normalized to S14; FIG. 3A
Procedure: RT-PCR for TNF-α and Kv1.1: Total RNA was prepared according to Tri-Reagent protocol (MRC, Cincinnati, Ohio). First-strand cDNA was synthesized by Reverse Transcription System (Promega, Madison, Wis.). RT-PCR was conducted in a 50 μl reaction mixture containing 50 ng cDNA, 5 μl of X10 Optibuffer (Bioline, London, UK), 3 μl of 50 mM MgCl2, 2.5 μl of 10 mM dNTP mix (Promega), 4U of Bio-X-act DNA Polymerase (Bioline). For TNF-α/S14 parallel amplification, 2 μl of each TNF-α primer (10 pmol/μl) and 0.25 μl of each S14 primer (10 pmol/μl) were used. For Kv1.1/S14 parallel amplification, 5 μl of each Kv1.1 primer (100 pmol/μl) and 2.5 μl of each S14 primer (10 pmol/μl) were used. […]; Conditions for TNF-α PCR were: 94° C. for 1 minute, 63° C. for 40 seconds and 72° C. for 40 seconds (29 cycles). Conditions for Kv1.1 PCR were: 94° C. for 3 minutes (one cycle); 94° C. for 1 minute, 60/57/54/51/48° C. for 2 minutes and 72° C. for 3 minutes (three cycles each); 94° C. for 1 minute, 50° C. for 2 minutes and 72° C. for 3 minutes (25 cycles). […]
The question of whether selective block of Kv1.1 subunit containing channels in T-cells elevates not only the levels of the TNF-α protein, but also TNF-α mRNA was studied next. […] Bars at the bottom represent fold increase TNF-α mRNA calculated following densitometric analysis and normalization of the corresponding RT-PCR bands of TNF-α/S14. […]

normal human T-cells = assay type: cell-based
Procedure: Human T-Cells: Normal human T-cells were purified from peripheral blood of healthy donors as described (Levite et al, 2000; Ganor et al, 2003; Levite t al, 1998), and the resulting cell population, containing ≧90% T-cells, was suspended in RPMI medium supplemented with 10% FCS, 1% L-Glutamine and antibiotics (Biological Industries, Bet Haemek, Israel) and maintained at 2×10^6 cells/ml (37° C./5% CO2).
Determination of TNF-α, IFN-γ, IL-10 and IL-4 by ELISA: Freshly-purified normal resting human T-cells (2×10^6/ml) were incubated in 24-well plates (Costar, Corning, N.Y.) and the various channel blockers were added. […] Cytokine levels were measured in supernatants after 24 hours for TNF-α and IFN-γ and after 72 hours for IL-10 and IL-4, by quantitative sandwich ELISA (R&D, Minneapolis, Minn.), according to the manufacturer's instructions. […]
These 12 blockers were selected on the basis of their reported ability to block most types of K^+, Na^+, Ca^2+ and Cl^− channels expressed in T-cells (Deutsch et al, 1986; Lewis et al, 1995; Lewis et al, 1988; Rader et al, 1996; Freedman et al, 1995; Koo et al, 1997; Lin et al, 1993; Ishida et al, 1993; Jensen et al, 1999; Kotturi et al, 2003; Phipps et al, 1996; Verheugen et al, 1997; Levite et al, 2000; Chandy et al, 1984). The levels of TNFα secreted into the culture media were tested 24 hours later by ELISA. For positive control, the cells were exposed to the potent phorbol ester PMA, know to activate T-cells in a non-specific manner. The results are shown in FIG. 1A and represent fold increase ±SD TNF-α secretion tested in 2-3 independent experiments. Each ion channel blocker was examined in at least two independent experiments, and at several concentrations covering its effective range (see Materials and Methods). The numbers in each figure next to each blocker represent the highest molar concentration used. Statistical analysis: *P=0.0001, 0.0005, 0.0011 and 0.0005 vs. untreated for MgTX, KTX, DTX-K and PMA, respectively (Student's t-test).

## Dendrotoxin-K (AAKYCKLPLRIGPCKRKIPSFYYKWKAKQCLPFDYSGCGGNANRFKTIEECRRTCVG) [DTX-K]
TNF-α mRNA
  TNFα mRNA levels: augmented
Normal human T-cells; 100 nM DTX-K, 24 hours, FIG. 2B
  IFN-γ secretion: not affecting
Normal human T-cells; 100 nM DTX-K, 24 hr, FIG. 2A
  TNFα secretion: elevated
Normal human T-cells; 100 nM DTX-K, 72 hours, FIG. 2C
  IL-10 secretion: not affecting
Normal human T-cells; 100 nM DTX-K, 72 hours, FIG. 2D
  IL-4 secretion: not affecting
Normal human T-cells; 100 nM DTX-K, after 16 hours, individuals 4 and 5
  TNFα secretion, time course: significantly elevated
Normal human T-cells; 100 nM DTX-K, after 72 hours, individuals 4 and 5
  TNF-α secretion, time course: remained significantly high
Normal human T-cells; DTX-K either during or after TCR-activation, data not shown
  additional elevation in TNFα levels beyond TCR-activation alone: did not cause additional elevation
Normal human T-cells; FIG. 1A, 24 hours, DTX-K 100 nM, other blockers at highest concentration used, no other stimulus
  fold increase in TNFα secretion: 33.4 fold increase
Normal human T-cells; FIG. 1B, 24 hour exposure, 100 nM DTX-K
  fold increase in TNFα secretion: 8.7 fold
Normal human T-cells; FIG. 1B, 24 hour exposure, 1 μM DTX-K
  fold increase in TNFα secretion: 39.5 fold
Normal human T-cells; individual 1 (FIG. 1C), 24 hours, 100 nM
  fold increase TNF-α secretion: 22.3 fold
Normal human T-cells; individual 2 (FIG. 1D), 24 hours, 100 nM
  fold increase TNF-α secretion: 8.7 fold
Normal human T-cells; individual 3 (FIG. 1E), 24 hours, 100 nM
  fold increase TNF-α secretion: 49.0 fold
Normal human T-cells; individual 4 (FIG. 1F), 24 hours, 100 nM
  fold increase TNF-α secretion: 34.4 fold
Normal human T-cells; individual 4 (FIG. 1F), 24 hours, 100 nM, untreated 38 pg/ml
  TNF-α secreted to the culture media: 1308 pg/mL
Normal human T-cells; individual 5 (FIG. 1G), 24 hours, 100 nM
  fold increase TNF-α secretion: 2.4 fold
Normal human T-cells; individual 6 (FIG. 1H), 24 hours, 100 nM
  fold increase TNF-α secretion: 2.0 fold
